Experimental data taken from patent publication US7868006B2, “Heterocyclic substituted piperazines with CXCR3 antagonist activity” (Schering Corporation, priority 2005, dated 2011).

Molecular target: T1, human CXCR3 (N-delta 4) (Homo sapiens, UniProt P49682)
T1 construct: CD8 leader (N); Flag tag (N); expressed in transfected cells; host or cells: mouse pro-B Ba/F3 cells, stably transfected with pME18Sneo-hCXCR3 (N-delta 4); membrane preparation
T1 sequence (P49682 5-368 limits assumed): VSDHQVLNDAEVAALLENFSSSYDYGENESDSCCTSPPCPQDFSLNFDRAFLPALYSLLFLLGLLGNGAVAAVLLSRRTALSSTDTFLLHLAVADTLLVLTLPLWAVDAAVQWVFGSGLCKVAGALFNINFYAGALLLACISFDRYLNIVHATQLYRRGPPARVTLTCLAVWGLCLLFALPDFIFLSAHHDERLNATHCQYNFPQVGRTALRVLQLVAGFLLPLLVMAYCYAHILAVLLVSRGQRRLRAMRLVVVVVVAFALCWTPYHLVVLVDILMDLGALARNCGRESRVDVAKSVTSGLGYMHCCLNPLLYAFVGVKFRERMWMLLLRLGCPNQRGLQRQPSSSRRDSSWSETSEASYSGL
Assay: Human CXCR3 (N-delta 4) Scintillation Proximity Assay (SPA), [125I] IP-10 binding
Settings: IC50 rating; Ba/F3-hCXCR3 (N-delta 4) membranes, 25 pM [125I] IP-10; read-out: IC50
Text: The inventive compounds can readily be evaluated to determine activity at The CXCR3 receptors by known methods, such as, for example, Development of Human CXCR3 (N-delta 4) Binding Assay.
Cloning and Expression of Human CXCR3 (N-delta 4):
The DNA encoding human CXCR3 was cloned by PCR using human genomic DNA (Promega, Madison, Wis.) as a template. The PCR primers were designed based on the published sequence of human orphan receptor GPR9 (1) with incorporated restriction sites, a Kozak consensus sequence, CD8 leader and Flag tag. The PCR product was subcloned into the mammalian expression vector pME18Sneo, a derivative of the SR-alpha expression vector (designated as pME18Sneo-hCXCR3 (N-delta 4).
IL-3-dependent mouse pro-B cells Ba/F3 were transfected by electroporation in 0.4 ml Dulbecco's PBS containing 4×10^6 cells with 20 μg of pME18Sneo-hCXCR3 (N-delta 4) plasmid DNA. Cells were pulsed at 400 Volts, 100 OHMs, 960 μFd. The transfected cells were under selection with 1 mg/ml G418 (Life Technologies, Gaithersburg, Md.). G418-resistant Ba/F3 clones were screened for CXCR3 expression by specific binding of [^125I] IP-10 (NEN Life Science Products, Boston, Mass.).
Preparation of Ba/F3-hCXCR3 (N-delta 4) Membranes:
Ba/F3 cells expressing human CXCR3 (N-delta 4) were pelleted and resuspended in the lysis buffer containing 10 mM HEPES, pH 7.5 and Complete® protease inhibitors (1 tablet per 100 ml) (Boehringer Mannheim, Indianapolis, Ind.) at a cell density of 20×10^6 cells per ml. After 5 minutes incubation on ice, cells were transferred to 4639 cell disruption bomb (Parr Instrument, Moline, Ill.) and applied with 1,500 psi of nitrogen for 30 minutes on ice. Large cellular debris was removed by centrifugation at 1,000×g. Cell membrane in the supernatant was sedimented at 100,000×g. The membrane was resuspended in the lysis buffer supplemented with 10% sucrose and stored at −80° C. Total protein concentration of the membrane was determined by BCA method from Pierce (Rockford, Ill.).
Human CXCR3 (N-delta 4) Scintillation Proximity Assay (SPA):
For each assay point, 2 μg of membrane was preincubated for 1 hr with 300 μg wheat germ agglutinin (WGA) coated SPA beads (Amersham, Arlington Heights, Ill.) in the binding buffer (50 mM HEPES, 1 mM CaCl2, 5 mM MgCl2, 125 mM NaCl, 0.002% NaN3, 1.0% BSA) at room temperature. The beads were spun down, washed once, resuspended in the binding buffer and transferred to a 96-well Isoplate (Wallac, Gaithersburg, Md.). 25 pM of [^125I] IP-10 with tested compounds in a series of titration were added to start the reaction. After 3 hr reaction at room temperature, the amount of [^125I] IP-10 bound to the SPA beads was determined with a Wallac 1450 Microbeta counter.
The Ki values for the various example compounds of the present invention are given in the afore-mentioned Table 1. From these values, it would be apparent to the skilled artisan that the compounds of the invention have excellent utility CXCR3 antagonists.

| SMILES | IC50 [nM] |
| --- | --- |
| CC[C@H]1CN(c2nc(N)c(-c3nnco3)nc2Cl)CCN1C1CCN(Cc2ccc(Cl)cc2)CC1 [Compound 50] | < 25 |
| CC[C@H]1CN(c2ncc(-c3nnc(C)[nH]3)nc2Cl)CCN1C1CCN(C(=O)c2ccc(Cl)cc2)CC1 [Compound 51] | < 25 |
| CC[C@H]1CN(c2nc(N)c(-c3nnc(C4CC4)o3)nc2Cl)CCN1C1CCN(C(=O)c2ccc(Cl)nc2N)CC1 [Compound 52] | < 25 |
| CC[C@H]1CN(c2ncc(-c3nnc(C)[nH]3)nc2C)CCN1C1CCN(C(=O)c2ccc(Cl)cc2)CC1 [Compound 53] | < 25 |
| CC[C@H]1CN(c2nc(F)c(-c3nnc(C)o3)nc2Cl)CCN1C1CCN(C(=O)c2ccc(Cl)cc2)CC1 [Compound 54] | < 25 |
| CC[C@H]1CN(c2nc(N)c(-c3nnc(C)o3)nc2Cl)CCN1C1CCN(Cc2ccc(Cl)cc2-c2nnn[nH]2)CC1 [Compound 55] | < 25 |
| CC[C@H]1CN(c2nc(N)c(-c3nnc(N)o3)nc2Cl)CCN1C1CCN(C(=O)c2ccc(C#N)cc2)CC1 [Compound 56] | < 25 |
| CC[C@H]1CN(c2nc(N)c(-c3nnc(C)o3)nc2Cl)CCN1C1CCN(C(=O)c2ccc(Cl)nc2)CC1 [Compound 57] | < 25 |
| CC[C@H]1CN(c2nc(N)c(-c3nnc(C)o3)nc2Cl)CCN1C1CCN(Cc2ccc(Cl)cc2-c2nnn(C)n2)CC1 [Compound 58] | < 25 |
| CC[C@H]1CN(c2nc(N)c(-c3nnc(C(F)(F)F)o3)nc2Cl)CCN1C1CCN(Cc2ccc(Cl)cc2)CC1 [Compound 59] | < 25 |
| CCO/C=N\c1nc(N2CCN(C3CCN(Cc4ccc(Cl)cc4)CC3)[C@@H](CC)C2)c(Cl)nc1-c1nnco1 [Compound 60] | < 25 |
| CC[C@H]1CN(c2nc(N)c(-c3nnc(C)o3)nc2Cl)CCN1C1CCN([C@@H](C(=O)OC)c2ccc(Cl)cc2)CC1 [Compound 61] | < 25 |
| CC[C@H]1CN(c2nc(N)c(-c3nnc(C)o3)nc2Cl)CCN1C1CCN([C@H](CO)c2ccc(Cl)cc2)CC1 [Compound 62] | < 25 |
| CC[C@H]1CN(c2ncc(-c3nnc(C)o3)nc2C)CCN1C1CCN(C(=O)c2ccc(F)c(F)c2)CC1 [Compound 63] | < 25 |
| CC[C@H]1CN(c2ncc(-c3nnc(C)o3)nc2C)CCN1C1CCN(C(=O)c2ccc(C#N)cc2)CC1 [Compound 64] | < 25 |
| CC[C@H]1CN(c2ncc(-c3nnc(C)o3)nc2C)CCN1C1CCN(C(=O)c2ccc(OC(F)(F)F)cc2)CC1 [Compound 65] | < 25 |
| CC[C@H]1CN(c2ncc(-c3nnc(N)[nH]3)nc2Cl)CCN1C1CCN(C(=O)c2ccc(Cl)cc2)CC1 [Compound 66] | < 25 |
| CC[C@H]1CN(c2nc(N)c(-c3nnc(C)o3)nc2Cl)CCN1C1CCN(C(=O)c2ccc(Cl)cc2O)CC1 [Compound 67] | < 25 |
| CC[C@H]1CN(c2nc(N)c(-c3nnc(N)[nH]3)nc2Cl)CCN1C1CCN(C(=O)c2ccc(Cl)cc2)CC1 [Compound 68] | < 25 |
| CC[C@H]1CN(c2nc(N)c(-c3nnc(CO)o3)nc2Cl)CCN1C1CCN([C@H](CO)c2ccc(Cl)cc2)CC1 [Compound 69] | < 25 |
| CC[C@H]1CN(c2nc(N)c(-c3nnc(C(N)=O)o3)nc2Cl)CCN1C1CCN(C(=O)c2ccc(Cl)cc2)CC1 [Compound 70] | < 25 |
| CC[C@H]1CN(c2nc(N)c(-c3nnc(N(C)C)o3)nc2Cl)CCN1C1CCN(C(=O)c2ccc(Cl)nc2N)CC1 [Compound 71] | < 25 |
| CC[C@H]1CN(c2ncc(-c3nnc(N)o3)nc2C)CCN1C1CCN(C(=O)c2ccc(C(F)(F)F)cc2)CC1 [Compound 72] | < 25 |
| CC[C@H]1CN(c2nc(N)c(-c3nnc(C(=O)NC4CC4)o3)nc2Cl)CCN1C1CCN(C(=O)c2ccc(Cl)nc2N)CC1 [Compound 73] | 25 to 100 |

| SMILES | IC50 [nM] |
| --- | --- |
| CC[C@H]1CN(c2nc(N)c(-c3nnc(C)o3)nc2Cl)CCN1C1CCN(C(=O)c2ccc(Cl)cc2NC(=O)C(F)(F)F)CC1 [Compound 74] | 25 to 100 |
| CC[C@H]1CN(c2nc(N)c(-c3nnc(NCC(N)=O)o3)nc2Cl)CCN1C1CCN(C(=O)c2ccc(Cl)nc2N)CC1 [Compound 75] | 25 to 100 |
| CC[C@H]1CN(c2nc(N)c(-c3nnc(N)o3)nc2Cl)CCN1C1CCN(C(=O)c2ccc(OC(F)(F)F)cc2)CC1 [Compound 76] | 25 to 100 |
| CC[C@H]1CN(c2nc(N)c(-c3nnc(C(=O)NCC(F)(F)F)o3)nc2Cl)CCN1C1CCN(C(=O)c2ccc(Cl)cc2)CC1 [Compound 77] | 25 to 100 |
| CC[C@H]1CN(c2nc(N)c(-c3nnc(C(C)(C)O)o3)nc2Cl)CCN1C1CCN(C(=O)c2ccc(Cl)cc2)CC1 [Compound 78] | 25 to 100 |
| CC[C@H]1CN(c2nc(N)c(-c3nnc(OC)o3)nc2Cl)CCN1C1CCN(C(=O)c2ccc(Cl)nc2N)CC1 [Compound 79] | > 100 |
| CC[C@H]1CN(c2nc(N)c(-c3nnc(C(F)(F)F)o3)nc2Cl)CCN1C1CCN(C(=O)c2ccc(Cl)cc2)CC1 [Compound 80] | > 100 |
| CCOC(=O)c1nnc(-c2nc(Cl)c(N3CCN(C4CCN(C(=O)c5ccc(Cl)nc5N)CC4)[C@@H](CC)C3)nc2N)o1 [Compound 81] | > 100 |
| CC[C@H]1CN(c2nc(N)c(-c3nnc(C)o3)nc2Cl)CCN1C1CCN(C(=O)c2cc(F)c(N)nc2Cl)CC1 [Compound 82] | > 100 |
| CC[C@H]1CN(c2nc(N)c(-c3nnc(C)o3)nc2Cl)CCN1C1CCN([C@H](C(=O)OC)c2ccc(Cl)cc2)CC1 [Compound 83] | > 100 |
| CC[C@H]1CN(c2nc(N)c(-c3nc(N)no3)nc2Cl)CCN1C1CCN(C(=O)c2ccc(Cl)nc2N)CC1 [Compound 84] | > 100 |
| CC[C@H]1CN(c2nc(N)c(-c3nnc(CO)o3)nc2Cl)CCN1C1CCN([C@H](C(=O)OC)c2ccc(Cl)cc2)CC1 [Compound 85] | > 100 |
| CC[C@H]1CN(c2nc(N)c(-c3n[nH]c(=S)n3C)nc2Cl)CCN1C1CCN(Cc2ccc(Cl)cc2)CC1 [Compound 86] | > 100 |
| CC[C@H]1CN(c2nc(N)c(-c3n[nH]c(=O)o3)nc2Cl)CCN1C1CCN(Cc2ccc(Cl)cc2)CC1 [Compound 87] | > 100 |
| CC[C@H]1CN(c2nc(N)c(-c3nnc(C(=O)NC4CC4)o3)nc2Cl)CCN1C1CCN(C(=O)c2ccc(Cl)cc2)CC1 [Compound 88] | > 100 |
| CC[C@H]1CN(c2nc(O)c(-c3nnc(C)o3)nc2Cl)CCN1C1CCN(C(=O)c2ccc(Cl)cc2)CC1 [Compound 89] | > 100 |
| CC[C@H]1CN(c2nc(NC(C)=O)c(-c3nnc(C)o3)nc2Cl)CCN1C1CCN(Cc2ccc(Cl)cc2)CC1 [Compound 90] | > 100 |
| CCOC(=O)c1nnc(-c2nc(Cl)c(N3CCN(C4CCN(C(=O)c5ccc(Cl)cc5)CC4)[C@@H](CC)C3)nc2N)o1 [Compound 91] | > 100 |
| CC[C@H]1CN(c2nc(N)c(-c3nnc(C)o3)nc2Cl)CCN1C1CCN(C(=O)c2ccc(Cl)cc2NS(C)(=O)=O)CC1 [Compound 92] | > 100 |
| CCNc1nnc(-c2nc(Cl)c(N3C[C@H](CC)N(C4CCN(C(=O)c5ccc(Cl)nc5N)CC4)C[C@H]3C)nc2N)o1 [Compound 93] | < 25 |
| CC[C@H]1CN(c2nc(N)c(-c3nnc(C)o3)nc2Cl)CCN1C1CCN(Cc2cnc(N)nc2)CC1 [Compound 95] | > 100 |
| CCNc1nnc(-c2cnc(N3C[C@H](CC)N(C4CCN(C(=O)c5ccc(Cl)cc5)CC4)C[C@H]3C)c(C)n2)o1 [Compound 96] | < 25 |
| CCNc1nnc(-c2cnc(N3C[C@H](CC)N(C4CCN(C(=O)c5ccc(Cl)nc5N)CC4)C[C@H]3C)c(C)n2)o1 [Compound 97] | < 25 |
